Measurements reported in patent US10206394B2, “Herbicidal compounds” (Syngenta Participations AG, priority 2014, dated 2019).
Where two headings read alike, the source gives them in different places.

Columns and labels:
Assay in all cases: Glasshouse assay for herbicidal activity (pre- and post-emergence), percentage phytotoxicity
Assay type in all cases: in vivo
Lolium perenne (LOLPE) = details: Lolium perenne, 250 g/ha, visual assessment (100%=total damage, 0%=no damage)
How it was run: (§1)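 Seeds were sown in standard soil in pots and grown one day (pre-emergence) or about 12 days (post-emergence) before herbicide application. Plants were kept at 24/18 °C (warm-climate) or 20/16 °C (cool-climate) day/night, 16 h light, 65% humidity, watered twice daily, and damage was scored visually at 15 DAA (POST) or 20 DAA (PRE).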

[1] = test system: Echinochloa crus-galli (ECHCG); details: Echinochloa crus-galli, 250 g/ha, visual assessment (100%=total damage, 0%=no damage)
How it was run: as §1

[2] = test system: Alopecurus myosuroides (ALOMY); details: Alopecurus myosuroides, 250 g/ha, visual assessment (100%=total damage, 0%=no damage)
How it was run: as §1

Avena fatua (AVEFA) = details: Avena fatua, 250 g/ha, visual assessment (100%=total damage, 0%=no damage)
How it was run: as §1

[3] = post-emergence, 360 h, post-emergence, 15 DAA, read-out: Post-emergence herbicidal activity (percentage phytotoxicity) LOLPE POST
[4] = pre-emergence, 480 h, pre-emergence, 20 DAA, read-out: Pre-emergence herbicidal activity (percentage phytotoxicity) LOLPE PRE
[5] = post-emergence, 360 h, post-emergence, 15 DAA, read-out: Post-emergence herbicidal activity (percentage phytotoxicity) ECHCG POST
[6] = pre-emergence, 480 h, pre-emergence, 20 DAA, read-out: Pre-emergence herbicidal activity (percentage phytotoxicity) ECHCG PRE
[7] = post-emergence, 360 h, post-emergence, 15 DAA, read-out: Post-emergence herbicidal activity (percentage phytotoxicity) ALOMY POST
[8] = pre-emergence, 480 h, pre-emergence, 20 DAA, read-out: Pre-emergence herbicidal activity (percentage phytotoxicity) ALOMY PRE
[9] = post-emergence, 360 h, post-emergence, 15 DAA, read-out: Post-emergence herbicidal activity (percentage phytotoxicity) AVEFA POST
[10] = pre-emergence, 480 h, pre-emergence, 20 DAA, read-out: Pre-emergence herbicidal activity (percentage phytotoxicity) AVEFA PRE

Compound | pest or weed control at 250 g/ha (Lolium perenne (LOLPE); [3]) [%] | pest or weed control at 250 g/ha (Lolium perenne (LOLPE); [4]) [%] | pest or weed control at 250 g/ha [1, 5] [%] | pest or weed control at 250 g/ha [1, 6] [%] | pest or weed control at 250 g/ha [2, 7] [%] | pest or weed control at 250 g/ha [2, 8] [%] | pest or weed control at 250 g/ha (Avena fatua (AVEFA); [9]) [%] | pest or weed control at 250 g/ha (Avena fatua (AVEFA); [10]) [%]
Cc1cc(OCC(F)(F)F)cc(C)c1C1C(=O)CC(CC(=O)NC(C)(C)C)C1=O (centres unmarked) [Compound B139] | 80 | 90 | 100 | 100 | 90 | 60 | 90 | 50
Cc1cc(Br)cc(C)c1C1C(=O)CC(CC(=O)NC(C)C)C1=O (centres unmarked) [Compound B140] | 90 | 90 | 80 | 70 | 90 | 90 | 90 | 80
Cc1cc(Br)cc(C)c1C1C(=O)CC(CC(=O)NCC2CC2(Cl)Cl)C1=O (centres unmarked) [Compound B141] | 80 | 80 | 80 | 70 | 80 | 90 | 90 | 60
Cc1cc(Br)cc(C)c1C1C(=O)CC(CC(=O)NCC2CC2C(F)F)C1=O (centres unmarked) [Compound B142] | 90 | 70 | 80 | 0 | 90 | 90 | 90 | 70
Cc1cc(-c2ncc(Cl)cc2F)cc(C)c1C1C(=O)CC(CC(=O)NCC2CC2C(F)F)C1=O (centres unmarked) [Compound B143] | 100 | 100 | 100 | 100 | 100 | 90 | 100 | 90
CCCNC(=O)CC1CC(=O)C(c2c(C)cc(-c3ncc(Cl)cc3F)cc2C)C1=O (centres unmarked) [Compound B144] | 100 | 100 | 100 | 100 | 100 | 100 | 100 | 100
CCCNC(=O)CC1CC(=O)C(c2c(C)cc(Br)cc2C)C1=O (centres unmarked) [Compound B145] | 90 | 90 | 80 | 80 | 80 | 70 | 90 | 60
Cc1cc(OCC(F)(F)F)cc(C)c1C1C(=O)CC(CC(=O)N2CCOCC2)C1=O (centres unmarked) [Compound B146] | 90 | 90 | 100 | 100 | 80 | 90 | 90 | 50
C=C(C)CNC(=O)CC1CC(=O)C(c2c(C)cc(OCC(F)(F)F)cc2C)C1=O (centres unmarked) [Compound B147] | 60 | 90 | 90 | 100 | 80 | 90 | 90 | 50
CCc1cccc(C)c1C1C(=O)CC(CC(=O)N2CCOCC2)C1=O (centres unmarked) [Compound B148] | 90 | 80 | 100 | 100 | 90 | 70 | 100 | 70
CCc1cccc(C)c1C1C(=O)CC(CC(=O)NC(C)(C)C)C1=O (centres unmarked) [Compound B149] | 80 | 90 | 90 | 100 | 90 | 90 | 90 | 80
CCCNC(=O)CC1CC(=O)C(c2c(C)cccc2CC)C1=O (centres unmarked) [Compound B150] | 100 | 100 | 100 | 100 | 100 | 100 | 100 | 90
C#CCNC(=O)CC1CC(=O)C(c2c(C)cccc2CC)C1=O (centres unmarked) [Compound B151] | 90 | 90 | 100 | 100 | 100 | 100 | 100 | 90
C=C(C)CNC(=O)CC1CC(=O)C(c2c(C)cccc2CC)C1=O (centres unmarked) [Compound B152] | 90 | 100 | 100 | 100 | 100 | 100 | 90 | 50
C/C=C/c1cc(C)c(C2C(=O)CC(CC(N)=O)C2=O)c(CC)c1 (centres unmarked) [Compound B153] | 100 | 80 | 100 | 90 | 100 | 90 | 100 | 70
Cc1cc(OCC(F)(F)F)cc(C)c1C1C(=O)CC(CC(N)=O)C1=O (centres unmarked) [Compound B154] | 70 | 70 | 90 | 80 | 70 | 90 | 70 | 50
CC#Cc1cc(C)c(C2C(=O)CC(CC(=O)N3CCOCC3)C2=O)c(C)c1 (centres unmarked) [Compound B155] | 100 | 100 | 100 | 100 | 100 | 90 | 100 | 100
CC#Cc1cc(C)c(C2C(=O)CC(CC(=O)NCCCOC)C2=O)c(C)c1 (centres unmarked) [Compound B156] | 100 | 100 | 100 | 100 | 100 | 100 | 100 | 100
C=CCNC(=O)CC1CC(=O)C(c2c(C)cc(C#CC)cc2C)C1=O (centres unmarked) [Compound B157] | 100 | 100 | 100 | 100 | 100 | 100 | 100 | 90
Cc1cc(C)c(C2C(=O)CC(CC(=O)NCC3CC3(F)F)C2=O)c(C)c1 (centres unmarked) [Compound B158] | 90 | 100 | 80 | 100 | 90 | 90 | 80 | 90
Cc1cc(C)c(C2C(=O)CC(CC(=O)NCC=C(Cl)Cl)C2=O)c(C)c1 (centres unmarked) [Compound B159] | 90 | 90 | 80 | 90 | 70 | 80 | 90 | 0
Cc1cc(-c2ncc(Cl)cc2F)cc(C)c1C1C(=O)CC(CC(=O)NCC2CC2(Cl)Cl)C1=O (centres unmarked) [Compound B160] | 100 | 90 | 100 | 100 | 100 | 90 | 100 | 80
